# Measurements reported in patent publication US20170354177A1, “ANTIFUNGAL COMPOSITION COMPRISING ANTIFUNGAL PEPTIDE AND TERPENE ALCOHOL” (MARUHA NICHIRO CORPORATION, priority 2014, published 2017).
# Key:
# [1] = system: Candida albicans TIMM1768; experiment: In vitro screening of material performing synergistic effect (10 min contact, crystal violet staining, absorbance 620 nm); format: cell-based; conditions: for synergistic effect by the combined use with a protamine hydrolysate: combined with protamine hydrolysate 0.125 or 2.0 mg/mL; for antibacterial activity in single use (relative absorbance, blank = 1): 0.008-1 mg/mL
# Source text: Candida albicans TIMM1768
# Hinokitiol (manufactured by Kiseitech Co., Ltd.), terpinen-4-ol (manufactured by Tokyo Chemical Industry, Co., Ltd.), geraniol (manufactured by Kanto Chemical Co., Inc.), menthol (manufactured by Wako Pure Chemical Industries, Ltd.), cinnamaldehyde (manufactured by Wako Pure Chemical Industries, Ltd.) and capric acid (manufactured by Wako Pure Chemical Industries, Ltd.) were individually dissolved in RPMI medium so that the concentration in a test material was 0.008, 0.04, 0.2, 1 mg/mL, and the protamine hydrolysate prepared according to Example 1 was dissolved so that the concentration of the protamine hydrolysate in a test material was 0, 0.125, 2.0 mg/mL, and the solutions were subjected to the test. Further, 0.002, 0.008, 0.031, 0.125, 0.5, 2, 8, 32 mg/mL solutions using the protamine hydrolysate singly were subjected to the test. Evaluation method
# C. albicans TIMM1768 strain was added to a 96 well microplate each in an amount of 200 μL so that 2.5×10^5 cells/well, and cultured for 2.5 to 3.5 hours at 37° C. under 5% CO2. After cultivation, each medium was removed under suction, and each test material was added in an amount of 200 μL/well. After allowing to stand still at 37° C. for 10 minutes, each sample solution was removed under suction, and RPMI medium was added in an amount of 200 μL/well, and cultured for 2.5 hours at 37° C. under 5% CO2. After cultivation, each sample was stained with crystal violet and the absorbance at 620 nm was measured. The antibacterial activity was expressed in terms of the relative value of each experimental section when the blank absorbance was 1.
# The results of in vitro evaluation when using a protamine hydrolysate and terpene alcohols in combination are shown in FIGS. 1 to 6, and the result of in vitro evaluation when using a protamine hydrolysate singly is shown in FIG. 7. In FIGS. 1 to 6, ♦ represents the result of single use of terpene alcohols, ▪ represents the result of the combined use with a protamine hydrolysate 0.125 mg/ml, and ▴ represents the result of the combined use with a protamine hydrolysate 2.0 mg/ml, respectively.
# [2] = system: Candida albicans TIMM1768; experiment: In vitro combined use of protamine hydrolysate and Hinokitiol (16 h culture, crystal violet), IC90 and FIC index; format: cell-based; conditions: TIMM1768, Pro 0, none printed in the table, read-out: IC90 of hinokitiol alone
# Experimental: FIC index=A1/A0+B1/B0 (1) • A0: MIC when agent A is used alone • A1: MIC of agent A when agent A and agent B are used in combination • B0: MIC when agent B is used alone • B1: MIC of agent B when agent A and agent B are used in combination Evaluation of synergistic effect by FIC index • FIC≦0.5: synergistic effect • 0.5<FIC≦1.0: additive effect • 1.0<FIC≦2.0: no relation • 2.0<FIC: antagonistic effect
# Hinokitiol (manufactured by Kiseitech Co., Ltd.) was dissolved in RPMI medium so that the concentration in each test material was 0, 0.004, 0.008, 0.016, 0.031, 0.063, 0.125, 0.25, 0.5, or 1 μg/mL, and the protamine hydrolysate prepared according to Example 1 was dissolved so that the concentration of the protamine hydrolysate in each test material was 0, 0.156, 0.313, 0.625, 1.25, 2.5, 5, or 10 μg/mL, and they were subjected to the test.
# C. albicans TIMM1768 strain was diluted with RPMI medium so that 5.0×10^3 cells/m L, then, added to a 96 well microplate each in an amount of 100 μL. The protamine hydrolysate solution was added each in an amount of 50 μL/well, then, Hinokitiol was added each in an amount of 50 μL/well. After cultivation for 16 hours at 37° C. under 5% CO2, each sample was stained with crystal violet and the absorbance at 620 nm was measured.
IC90 [2] [µg/mL],Compound,synergistic effect by the combined use with a protamine hydrolysate [1],"antibacterial activity in single use (relative absorbance, blank = 1) [1]"
,CC1=CCC(O)(C(C)C)CC1 (stereo not shown) [terpinen-4-ol],the activity was slightly improved by the combined use with a protamine hydrolysate,low activity
,CC1CCC(C(C)C)C(O)C1 (stereo not shown) [menthol],the activity was slightly improved by the combined use with a protamine hydrolysate,low activity
,"O=CC=Cc1ccccc1 [Cinnamaldehyde, cinnamaldehyde, reference compound]",the synergistic effect by the combined use with a protamine hydrolysate was not recognized,little antibacterial activity
0.77,CC(C)c1cccc(=O)c(O)c1 [Hinokitiol],a synergistic effect of improving activity by the combined use with a protamine hydrolysate was recognized,showed an antibacterial activity even in the single use
,CC(C)=CCC/C(C)=C/CO [geraniol],the activity was slightly improved by the combined use with a protamine hydrolysate,low activity
,"CCCCCCCCCC(=O)O [capric acid, reference compound]",the synergistic effect by the combined use with a protamine hydrolysate was not recognized,little antibacterial activity
